Where only a bound is given, the exact number is not on record here.

Series [1] is described as follows: Phytotoxicity against Oryza sativa (rice) assessed as growth inhibition under greenhouse at 5 g/ha measured after 18 days by preemergence activity assay. The settings on record: in vivo, read-out: GI. Type of series: organism-based.
The subject of the next series is Rotala indica. In words: Herbicidal activity against Rotala indica assessed as growth inhibition in paddy condition under greenhouse at 5 g/ha measured after 18 days by preemergence activity assay. The class given is functional. The settings on record: pre-emergence, 432 h, read-out: GI.
For the next series, the system named is Pontederia vaginalis. Nature of the series: Herbicidal activity against Monochoria vaginalis assessed as growth inhibition in paddy condition under greenhouse at 5 g/ha measured after 18 days by preemergence activity assay. The conditions noted are these: pre-emergence, 432 h, read-out: GI. The class given is functional.
Series [2] relates to Schoenoplectiella juncoides. In words: Herbicidal activity against Schoenoplectiella juncoides assessed as growth inhibition in paddy condition under greenhouse at 5 g/ha measured after 18 days by preemergence activity assay. Type of series: functional. The conditions noted are these: pre-emergence, 432 h, read-out: GI.
For another series, the system named is Echinochloa crus-galli. Nature of the series: Herbicidal activity against Echinochloa crus-galli (barnyard grass) assessed as growth inhibition in paddy condition under greenhouse at 5 g/ha measured after 18 days by preemergence activity assay. Type of series: functional. The conditions noted are these: pre-emergence, 432 h, read-out: GI.

`CCOC(=O)c1c(CC)nn(C)c1S(=O)(=O)NC(=O)Nc1nc(OC)cc(OC)n1`: the inhibition at 432 h in series [1] is less than 5%. Also, the inhibition of growth at 5 g/ha is more than 90% in the series with Rotala indica, 70% in the series with Pontederia vaginalis, 40% in series [2] and 20% with Echinochloa crus-galli.
The like results for `COc1cc(OC)nc(NC(=O)NS(=O)(=O)c2c(C(=O)O)cnn2C)n1` were, in that order, less than 5%, less than 5%, less than 5%, less than 5% and less than 5%.
The matching figures for `COc1cc(OC)nc(NC(=O)NS(=O)(=O)c2c(C)cnn2C)n1`: less than 5%, 70%, 40%, 20% and 20%.
In the case of `COc1cc(OC)nc(NC(=O)NS(=O)(=O)c2c([N+](=O)[O-])cnn2C)n1`, the inhibition at 432 h in series [1] is less than 5%. For the same molecule, the inhibition of growth at 5 g/ha (in the series on Rotala indica; in the series with Pontederia vaginalis; in series [2]; in the series with Echinochloa crus-galli) was less than 5% in each case.
On to `COC(=O)c1cnn(C)c1S(=O)(=O)NC(=O)Nc1nc(OC)cc(OC)n1`, for which the inhibition at 432 h in series [1] is less than 5%. For the same molecule, the inhibition of growth at 5 g/ha in the series with Rotala indica was more than 90%; in the series with Pontederia vaginalis, more than 90%; in series [2], 70%; with Echinochloa crus-galli, 40%.
Turning to `COc1cc(OC)nc(NC(=O)NS(=O)(=O)c2c(C(=O)N(C)C)cnn2C)n1`, in series [1], the inhibition at 432 h is less than 5%. Moreover, the inhibition of growth at 5 g/ha (with Rotala indica; with Pontederia vaginalis; in series [2]; in the series with Echinochloa crus-galli) was less than 5% throughout.
As to `CCCOC(=O)c1cnn(C)c1S(=O)(=O)NC(=O)Nc1nc(OC)cc(OC)n1`, the inhibition at 432 h in series [1] is less than 5%. Moreover, the inhibition of growth at 5 g/ha in the series with Rotala indica was more than 90%; in the series on Pontederia vaginalis, more than 90%; in series [2] it was 70%; in the series with Echinochloa crus-galli, less than 5%.
Regarding `CCCCOC(=O)c1cnn(C)c1S(=O)(=O)NC(=O)Nc1nc(OC)cc(OC)n1`, the inhibition at 432 h in series [1] was less than 5%. The inhibition of growth at 5 g/ha (with Rotala indica; in the series on Pontederia vaginalis; in series [2]; in the series with Echinochloa crus-galli) was less than 5% each time.
Regarding `CCOC(=O)c1cnn(C)c1S(=O)(=O)NC(=O)Nc1nc(OC)nc(OC)n1`, the inhibition at 432 h in series [1] amounted to 5%. Further, the inhibition of growth at 5 g/ha (with Rotala indica; in the series on Pontederia vaginalis; in series [2]; in the series with Echinochloa crus-galli) was less than 5% each time.
Take `CCOC(=O)c1c(C)nn(C)c1S(=O)(=O)NC(=O)Nc1nc(OC)cc(OC)n1`: in series [1], the inhibition at 432 h is less than 5%. Also, the inhibition of growth at 5 g/ha in the series on Rotala indica was more than 90%; with Pontederia vaginalis, more than 90%; in series [2], more than 90%; in the series with Echinochloa crus-galli, 70%.
As for `CCOC(=O)c1cnn(CC)c1S(=O)(=O)NC(=O)Nc1nc(OC)cc(OC)n1`, in series [1], the inhibition at 432 h turned out to be 5%. Further, the inhibition of growth at 5 g/ha was more than 90% in the series with Rotala indica, more than 90% in the series with Pontederia vaginalis, 70% in series [2] and 5% with Echinochloa crus-galli.
As for `CCOC(=O)c1nn(C)c(S(=O)(=O)NC(=O)Nc2nc(OC)cc(OC)n2)c1C(=O)OCC`, in series [1], the inhibition at 432 h was less than 5%. Further, the inhibition of growth at 5 g/ha (in the series with Rotala indica; with Pontederia vaginalis; in series [2]; with Echinochloa crus-galli) was less than 5% each time.
As for `COc1cc(OC)nc(NC(=O)NS(=O)(=O)c2c(C#N)cnn2C)n1`, in series [1], the inhibition at 432 h was less than 5%. Also, the inhibition of growth at 5 g/ha (in the series on Rotala indica; with Pontederia vaginalis; in series [2]; with Echinochloa crus-galli) was less than 5% throughout.
Turning to `COc1cc(OC)nc(NC(=O)NS(=O)(=O)c2c(S(=O)(=O)N(C)C)cnn2C)n1`, in series [1], the inhibition at 432 h was more than 90%. For the same molecule, the inhibition of growth at 5 g/ha in the series on Rotala indica is more than 90%; with Pontederia vaginalis it was 70%; in series [2], more than 90%; with Echinochloa crus-galli, 40%.
As for `CCC(=O)c1cnn(C)c1S(=O)(=O)NC(=O)Nc1nc(OC)cc(OC)n1`, in series [1], the inhibition at 432 h was less than 5%. The inhibition of growth at 5 g/ha with Rotala indica worked out at 40%; in the series on Pontederia vaginalis, 40%; in series [2] it was 20%; with Echinochloa crus-galli, 5%.
As to `CCOC(=O)c1cnn(-c2ccccc2)c1S(=O)(=O)NC(=O)Nc1nc(OC)cc(OC)n1`, in series [1], the inhibition at 432 h was less than 5%. Moreover, the inhibition of growth at 5 g/ha in the series with Rotala indica was 70%; with Pontederia vaginalis, 40%; in series [2], 20%; in the series on Echinochloa crus-galli, less than 5%.
As to `CCOC(=O)c1cnn(C)c1S(=O)(=O)NC(=O)Nc1nc(C)cc(OC)n1`, the inhibition at 432 h in series [1] was less than 5%. For the same molecule, the inhibition of growth at 5 g/ha is more than 90% in the series on Rotala indica, 70% with Pontederia vaginalis, 70% in series [2] and 5% in the series on Echinochloa crus-galli.
With `CCOC(=O)c1c(OC)nn(C)c1S(=O)(=O)NC(=O)Nc1nc(OC)cc(OC)n1`, the inhibition at 432 h in series [1] is less than 5%. For the same molecule, the inhibition of growth at 5 g/ha in the series with Rotala indica was more than 90%; in the series with Pontederia vaginalis it was more than 90%; in series [2] it was 70%; in the series with Echinochloa crus-galli, 40%.
Consider `CCOC(=O)c1c(C(F)(F)F)nn(C)c1S(=O)(=O)NC(=O)Nc1nc(OC)cc(OC)n1`, for which the inhibition at 432 h in series [1] was less than 5%. Moreover, the inhibition of growth at 5 g/ha with Rotala indica was 20%; with Pontederia vaginalis it was less than 5%; in series [2], less than 5%; in the series with Echinochloa crus-galli it was less than 5%.
Regarding `CCOC(=O)c1c(Cl)nn(C)c1S(=O)(=O)NC(=O)Nc1nc(OC)cc(OC)n1`, in series [1], the inhibition at 432 h is less than 5%. Also, the inhibition of growth at 5 g/ha with Rotala indica is more than 90%; in the series on Pontederia vaginalis, more than 90%; in series [2] it was 70%; in the series with Echinochloa crus-galli it was 20%.
Take `CCOC(=O)c1c([N+](=O)[O-])nn(C)c1S(=O)(=O)NC(=O)Nc1nc(OC)cc(OC)n1`: the inhibition at 432 h in series [1] was 5%. Besides, the inhibition of growth at 5 g/ha in the series on Rotala indica was 70%; in the series on Pontederia vaginalis, 20%; in series [2], 5%; in the series on Echinochloa crus-galli it was less than 5%.
Regarding `COc1cc(OC)nc(NC(=O)NS(=O)(=O)c2c(Br)cnn2C)n1`, the inhibition at 432 h in series [1] was less than 5%. Further, the inhibition of growth at 5 g/ha is 40% in the series on Rotala indica, 70% in the series with Pontederia vaginalis, 40% in series [2] and less than 5% in the series with Echinochloa crus-galli.
Regarding `CCCCn1ncc(C(=O)OCC)c1S(=O)(=O)NC(=O)Nc1nc(OC)cc(OC)n1`, the inhibition at 432 h in series [1] is less than 5%. Further, the inhibition of growth at 5 g/ha (with Rotala indica; in the series on Pontederia vaginalis; in series [2]; in the series on Echinochloa crus-galli) was less than 5% throughout.
As for `CCOC(=O)c1cnn(C)c1S(=O)(=O)NC(=O)Nc1nc(C)cc(C)n1`, in series [1], the inhibition at 432 h is 5%. In addition, the inhibition of growth at 5 g/ha in the series with Rotala indica is 40%; in the series with Pontederia vaginalis, less than 5%; in series [2] it was less than 5%; with Echinochloa crus-galli, less than 5%.
On to `CCOC(=O)c1cn[nH]c1S(=O)(=O)NC(=O)Nc1nc(OC)cc(OC)n1`, for which the inhibition at 432 h in series [1] was 5%. Further, the inhibition of growth at 5 g/ha with Rotala indica stood at 70%; with Pontederia vaginalis, 70%; in series [2], 70%; in the series on Echinochloa crus-galli, 5%.

Values taken from ChEMBL document CHEMBL3046449, “Selective Herbicidal Activities of Ethyl 5-(4, 6-Dimethoxypyrimidin-2-ylcarbamoylsulfamoyl)-1-methylpyrazole-4-carboxylate and Its Related Compounds” (J Pestic Sci, 1990).
